Results: patent US20250161310A1, “PHARMACEUTICAL COMBINATIONS FOR USE IN THE TREATMENT OF NEOPLASTIC DISEASES” (priority 2022, published 2025)
Where two headings read alike, the source gives them in different places. Marks after values point to notes of the source that are not given here.

Experiments:
BR1282 TNBC PDX tumor [1] = assay: first PDX combination study (carboplatin first), BR1282; conditions: for Efficacy: ΔT/C Day 0 up to Day 31: based on mean rate of growth (k); for Efficacy: ΔT/C Day 0 up to Day 31 / Efficacy: ΔT/C Day 10: formula (I) 7 mg/kg 2qw i.v., carboplatin 60 mg/kg qw i.v., carboplatin first; for Mean difference of mean rate of growth (k), Vehicle vs. treatment: comparator Vehicle, day 0 to latest day 31; for Efficacy: ΔT/C Day 10: mean change in tumor volume
Protocol: In a first PDX study, female BALB/c nude mice (CrownBio) of at least 20 g body weight were subcutaneously (s.c.) inoculated in the right flank with tumor fragments (3*3*3 mm) from stock mice bearing the patient-derived xenograft (PDX) triple negative breast cancer (TNBC) tumor, BR1282. Randomization into 5 different treatment groups (8 mice per group) was made when the mean tumor size was 150-200 mm^3. Mice were dosed intravenously (i.v.) twice weekly (2qw) with the compound of formula (I) (7 mg/kg, i.v., 5 mL/kg) or once weekly (qw) carboplatin (60 mg/kg, i.v., 10 mL/kg) or the combination of these doses, in which the compound of formula (I) was administered after carboplatin using either a 4 h or a 24 h gap, when both compounds were administered on the same day/consecutive days. The fifth group received both vehicles using the time interval of 4 h and all groups were dosed twice via the tail vein. Dosing was delayed by 1 day in any mice showing transient body weight loss of >10% at any time point.
(§1) Carboplatin was purchased from Qilu Pharmaceutical Co. Ltd. as a solution (10 mg/mL in 5% (w/v) glucose in pure water). The compound of formula (I) was supplied as a powder by Basilea Pharmaceutica International Ltd. and was prepared freshly as a solution in Ethanol:PEG400:Citric acid 20 mM, at a ratio of 1:1:8 and at a final pH of 3.7, for immediate administration.
(§2) Body weights and tumor volumes were determined at least twice per week, the latter by measuring two dimensions with calipers and applying the formula “V=(L×W^2)/2”, where V is the tumor volume, and L and W are the tumor length and width re-spectively. […] Mice were also culled if the BWL was determined to be >15% for 3 consecutive days. Any mice with >10% BWL, automatically were dosed on one of the following days, as soon as the BWL returned to <10%. All animal protocols were reviewed and approved by the relevant local committees in China, where the studies were performed.
(§3) The statistical significance of efficacy were determined in two different ways using a) the endpoint on day 10 or day 14 depending on the study when it was necessary to cull the vehicle group because of tumor volume exceeding 1500 mm^3, and b) at the endpoint of day 31 in the first study when exponential curve fits were applied to estimate the rates of tumor growth in the different groups. The degree of an effect was quantified by the delta (A) treated/control ratio (ΔT/C) and the statistical significance of the effect was determined by a one-way analysis of variance (1W-ANOVA) with Holms-Sidak applied post-hoc for multiple determinations, where a p-value of <0.05 was considered statistically significant. In addition, an assessment of the combination effect was made based upon the Clarkes Combination Index (CCI), where the CCI=ΔT/CAB−(ΔT/CA*ΔT/CB) in which A and B are two different compounds and AB the combination thereof, where CCI<−0.1 indicates synergy (or a positive interaction), +0.1 (antagonism, or a negative interaction) and between −0.1 and +0.1 indicates additivity (no interaction); see O'Reilly et al. Anti Cancer Drugs 2011; 22:58-78.

BR1282 TNBC PDX tumor [2] = assay: second PDX combination study (compound of formula (I) first), BR1282; conditions: for Efficacy: ΔT/C Day 0 up to Day 17: based on mean rate of growth (k), formula (I) 8 mg/kg qw first, carboplatin 60 mg/kg qw 4 h later; for k means, Mean difference, Vehicle vs. treatment / Δ tumor volume on day 14, Mean difference, Vehicle vs. treatment: comparator Vehicle; for Efficacy: ΔT/C Day 14: mean change in tumor volume, formula (I) 8 mg/kg qw i.v. first, carboplatin 60 mg/kg qw i.v. 4 h later
Protocol: In a second PDX study, the same model was used as for the first study (TNBC BR1282 PDX model), but this time compound of formula (I) (8 mg/kg, i.v., qw, 5 mL/kg) was administered first and carboplatin (60 mg/kg, i.v., qw, 6 mL/kg) second using a 4 h gap between both administrations and compound of formula (I) was provided qw. Consequently, the mice received both compounds on the same day (4 h gap).
as §1, §2, §3

SKOV-3 s.c. xenografts = assay type: in vivo; conditions: day 23
Protocol: The anti-tumor activity of the compound of formula (I) in combination with carboplatin was evaluated in an ovarian cancer model, using human SKOV-3 cells grown as a solid tumor xenograft subcutaneously (s.c.) in nude mice.
The maximum tolerated dose (MTD) of the compound of formula (I) in combination with an optimal dose of carboplatin was defined in non-tumor bearing BALB/c nude mice in the experiments described above. […] Thus, in this study, using a human ovarian cell line derived xenograft (CDX) model, that schedule was applied and compared directly with the same order of administration with a 1 hr or 24 hr gap between compounds. In addition, the twice-weekly schedule was compared with a weekly schedule of 7 mg/kg BAL0891 (a weekly dose well below the MTD for compound of formula (I) monotherapy) using a 4 hr gap. Treatments continued until day 24 and tumor volumes and body weight were monitored until day 51.

other kinases = assay: kinase specificity, other kinases versus TTK; assay type: biochemical
[3] = biological target: T1, TTK kinase domain (amino acids 519-808) (Homo sapiens, UniProt P33981); assay: target residence time assay (Biacore T200 surface plasmon resonance), TTK; assay type: binding; conditions: SPR, 22° C.
T1 construct: recombinant expressed TTK kinase domain (amino acids 519-808)
T1 sequence (P33981 519-808): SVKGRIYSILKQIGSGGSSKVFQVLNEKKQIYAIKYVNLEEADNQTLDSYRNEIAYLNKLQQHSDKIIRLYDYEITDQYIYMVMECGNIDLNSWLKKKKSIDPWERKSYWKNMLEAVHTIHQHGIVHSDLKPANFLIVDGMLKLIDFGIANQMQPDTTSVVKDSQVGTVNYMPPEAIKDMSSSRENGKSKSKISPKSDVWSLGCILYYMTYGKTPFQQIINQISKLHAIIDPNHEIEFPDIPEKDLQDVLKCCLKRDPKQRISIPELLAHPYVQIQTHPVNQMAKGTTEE
Protocol: (§4) The affinity, i.e. the equilibrium dissociation constant (KD) (referred to as residence times), of the compound of formula (I) against TTK and PLK1 were determined using a Biacore T200™ surface plasmon resonance instrument using recombinant expressed TTK kinase domain (amino acids 519-808) or biotinylated PLK1. The immobilization of TTK was performed as described in Maia et al. Annals of Oncology, 2015; 26:2180-2192. The immobilization of biotinylated PLK1 was performed as described in Willemsen-Seegers et al. Journal of Molecular Biology, 2017; 429:574-586. The subsequent single cycle kinetic assays were performed at 22° C. using a compound concentration gradient of […], 10, 31.6 and 100 nM for TTK and 10, 31.6, 100, 316 and 1000 nM for PLK1, a contact time of 100 s and a flow rate of […]. The dissociation period was 1200-1800 s and a correction for an unstable surface using a blank run with buffer was performed.

biotinylated PLK1 = biological target: T2, biotinylated PLK1 (Homo sapiens, UniProt P53350); assay: target residence time assay (Biacore T200 surface plasmon resonance), PLK1; assay type: binding; conditions: SPR, 22° C.
T2 construct: biotin (biotinylated)
T2 sequence (P53350 whole entry): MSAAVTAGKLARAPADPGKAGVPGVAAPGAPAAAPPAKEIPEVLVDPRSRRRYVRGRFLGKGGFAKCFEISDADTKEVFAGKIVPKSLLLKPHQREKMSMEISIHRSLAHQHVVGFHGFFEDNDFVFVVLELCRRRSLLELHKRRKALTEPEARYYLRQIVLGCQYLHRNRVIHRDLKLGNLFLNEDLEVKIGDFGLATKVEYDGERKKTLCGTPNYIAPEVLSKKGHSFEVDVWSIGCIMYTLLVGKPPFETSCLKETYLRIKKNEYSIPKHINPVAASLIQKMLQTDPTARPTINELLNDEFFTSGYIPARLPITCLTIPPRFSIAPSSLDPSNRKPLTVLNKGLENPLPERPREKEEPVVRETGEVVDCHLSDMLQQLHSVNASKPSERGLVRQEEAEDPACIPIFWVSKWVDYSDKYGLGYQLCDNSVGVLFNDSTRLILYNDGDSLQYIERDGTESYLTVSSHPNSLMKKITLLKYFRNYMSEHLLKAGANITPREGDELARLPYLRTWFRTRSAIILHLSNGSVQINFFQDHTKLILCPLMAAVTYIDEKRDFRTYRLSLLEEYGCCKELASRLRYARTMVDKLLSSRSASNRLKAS
Protocol: as §4

tumor-derived TTK = biological target: T3, tumor-derived TTK (Homo sapiens, UniProt P33981); assay: tumor TTK target occupancy in MDA-MB-231 xenograft-bearing mice; assay type: in vivo; conditions: MDA-MB-231 tumors
T3 construct: from tissue; host or cells: MDA-MB-231 xenograft tumours grown in mice
T3 sequence (P33981 1-857): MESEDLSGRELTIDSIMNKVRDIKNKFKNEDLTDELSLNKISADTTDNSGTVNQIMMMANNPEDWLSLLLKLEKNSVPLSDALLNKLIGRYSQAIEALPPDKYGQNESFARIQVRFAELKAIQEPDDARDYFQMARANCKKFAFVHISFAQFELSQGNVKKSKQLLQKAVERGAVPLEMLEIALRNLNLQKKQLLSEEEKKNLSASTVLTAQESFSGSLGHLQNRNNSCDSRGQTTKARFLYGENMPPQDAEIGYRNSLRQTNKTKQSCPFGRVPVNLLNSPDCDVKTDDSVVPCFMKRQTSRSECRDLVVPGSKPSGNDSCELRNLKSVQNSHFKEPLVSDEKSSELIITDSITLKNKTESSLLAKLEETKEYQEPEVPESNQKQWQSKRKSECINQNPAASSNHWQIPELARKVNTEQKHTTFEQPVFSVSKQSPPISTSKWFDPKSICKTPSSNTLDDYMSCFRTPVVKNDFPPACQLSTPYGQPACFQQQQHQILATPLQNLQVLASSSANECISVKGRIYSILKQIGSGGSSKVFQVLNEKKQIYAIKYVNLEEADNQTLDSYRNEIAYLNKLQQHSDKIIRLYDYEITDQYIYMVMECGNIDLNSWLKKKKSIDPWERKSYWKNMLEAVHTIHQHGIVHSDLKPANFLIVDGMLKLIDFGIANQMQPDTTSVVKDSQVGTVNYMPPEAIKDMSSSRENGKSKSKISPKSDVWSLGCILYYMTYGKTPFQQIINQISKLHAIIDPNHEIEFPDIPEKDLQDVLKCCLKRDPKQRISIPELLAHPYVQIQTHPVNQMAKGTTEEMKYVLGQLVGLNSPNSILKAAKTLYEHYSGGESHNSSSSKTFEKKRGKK
Protocol: Prolonged TTK target occupancy was also measured in tumors derived from MDA-MB-231 xenograft-bearing mice treated with intermittent i.v. dosing regimen of compound of formula (I). […]

[4] = tested on: 18 different triple negative breast cancer cell lines; assay: 5-day anti-proliferative screen of 18 triple negative breast cancer cell lines; assay type: cell-based; conditions: 120 h; 5-day screen, 18 TNBC cell lines; read-out: median GI50
Source text: (§5) In cellular systems, the compound of formula (I) has high potency against sensitive cells.

[5] = tested on: patient-derived tumor xenografts, including TNBC and hepatocellular cancer (HCC) models; assay: monotherapy activity against patient-derived tumor xenografts in mice; assay type: in vivo; conditions: data not shown
Source text: as §5

[6] = maximum tolerated dose in combination with carboplatin in non-tumor-bearing mice; assay type: in vivo
Source text: Carboplatin is standard of care treatment in a number of tumor indications. To determine the combination effect of the compound of formula (I) and carboplatin, the maximum tolerated dose (MTD) of the compound of formula (I) in combination with an optimal dose of carboplatin was first defined in non-tumor-bearing BALB/c nude mice. […]

[7] = comparator Formula (I) monotherapy
[8] = monotherapy: Formula (I) 7 mg/kg iv 2qw, Carboplatin 60 mg/kg iv qw

## N.N.O=C([O-])C1(C(=O)[O-])CCC1.[Pt+2] [Carboplatin]
BR1282 TNBC PDX tumor [1]
  Efficacy: ΔT/C Day 0 up to Day 31: 0.75*
  Mean difference of mean rate of growth (k), Vehicle vs. treatment: 0.0350
  Efficacy: ΔT/C Day 10: 0.74
BR1282 TNBC PDX tumor [1]; [7]
  Mean difference of mean rate of growth (k), Formula (I) vs. treatment: −0.049
BR1282 TNBC PDX tumor [1]; mean fractional body weight change vs vehicle (BWday10/BWday0)
  Tolerability (Day 10) ΔI/C: 0.97
BR1282 TNBC PDX tumor [1]; mean ± SEM change in body weight, day 10
  Tolerability (Day 10) ΔBW (%): 0.8 ± 1.2%
BR1282 TNBC PDX tumor [2]
  Efficacy: ΔT/C Day 0 up to Day 17: 0.96
  k means, Mean difference, Vehicle vs. treatment: 0.007
  Δ tumor volume on day 14, Mean difference, Vehicle vs. treatment: 71.5
  Efficacy: ΔT/C Day 14: 0.93
BR1282 TNBC PDX tumor [2]; [7]
  k means, Mean difference, Formula (I) vs. treatment: −0.039
  Δ tumor volume on day 14, Mean difference, Formula (I) vs. treatment: −350.8
BR1282 TNBC PDX tumor [2]; mean fractional body weight change vs vehicle (BWday14/BWday0)
  Tolerability (Day 14) ΔT/C: 1.00
BR1282 TNBC PDX tumor [2]; mean ± SEM change in body weight, day 14
  Tolerability (Day 14) ΔBW (%): 3.3 ± 2.6%
SKOV-3 s.c. xenografts; [8]
  ΔT/C: 0.72

## COc1cc(N2CCNCC2)ccc1Nc1ncc2c(n1)-n1ccc(C(=O)Nc3c(C)cccc3C)c1CC2 [Compound of formula (I)]
Other kinases
  other kinase IC50s higher than those for TTK: at least 10 fold
[3]
  target-residency on TTK: > 12 h
Biotinylated PLK1
  target-residency on PLK1: a few minutes
tumor-derived TTK; i.v. twice-weekly, last MTD dose
  time TTK completely occupied after last dose: at least 72 h
tumor-derived TTK; i.v. weekly MTD dosing, repeat experiment
  time tumor-derived TTK fully drug-occupied after last administration: up to 6 days
[4]
  GI50: 35 nM
[5]
  activity against patient-derived tumor xenografts: significant activity
[6]; 2qw i.v., 4 or 24 hours after carboplatin 60 mg/kg qw i.v.
  highest tolerated doses of compound of formula (I) in combination with carboplatin: 6 to 7 mg/kg
[6]; 6-8 mg/kg, 24 h gap to carboplatin or 2qw schedule
  tolerability when compound of formula (I) applied first: not tolerated
[6]; weekly, carboplatin 60 mg/kg i.v. qw 4 h later
  tolerated dose of compound of formula (I) when applied before carboplatin: 8 mg/kg
BR1282 TNBC PDX tumor [1]
  Efficacy: ΔT/C Day 0 up to Day 31: 0.41***
  Mean difference of mean rate of growth (k), Vehicle vs. treatment: 0.084
  Efficacy: ΔT/C Day 10: 0.58
BR1282 TNBC PDX tumor [1]; mouse, in vivo
  Tolerability (Day 10) ΔBW (%): 0.5 ± 1.6%
  Tolerability (Day 10) ΔI/C: 0.96
BR1282 TNBC PDX tumor [2]
  Efficacy: ΔT/C Day 0 up to Day 17: 0.70
  k means, Mean difference, Vehicle vs. treatment: 0.045
  Δ tumor volume on day 14, Mean difference, Vehicle vs. treatment: 422.3
  Efficacy: ΔT/C Day 14: 0.60
BR1282 TNBC PDX tumor [2]; mouse, in vivo
  Tolerability (Day 14) ΔBW (%): 2.7 ± 2.1%
  Tolerability (Day 14) ΔT/C: 1.00
SKOV-3 s.c. xenografts; monotherapy Formula (I) 7 mg/kg iv qw
  ΔT/C: 0.69
SKOV-3 s.c. xenografts; [8]
  ΔT/C: 0.64
